Assay results taken from paper PMC5514931, “Repositioning chlorpromazine for treating chemoresistant glioma through the inhibition of cytochrome c oxidase bearing the COX4-1 regulatory subunit” (Oncotarget, 2017).

How the values were obtained:
[1] = molecular target: T1, cytochrome c oxidase (CcO, complex IV) bearing the COX4-1 regulatory subunit (Homo sapiens, UniProt P00395+P13073); assay: CcO activity and Michaelis-Menten kinetics in mitochondrial extracts; format: biochemical
T1 construct: gene COX4I1; CcO in mitochondrial extracts of UTMZ, U251-TgCOX4-1 (FLAG-tagged COX4-1) and GSC (J × 12, J × 39) cells; with COX1 and the other CcO subunits
T1 sequence (P00414 whole entry): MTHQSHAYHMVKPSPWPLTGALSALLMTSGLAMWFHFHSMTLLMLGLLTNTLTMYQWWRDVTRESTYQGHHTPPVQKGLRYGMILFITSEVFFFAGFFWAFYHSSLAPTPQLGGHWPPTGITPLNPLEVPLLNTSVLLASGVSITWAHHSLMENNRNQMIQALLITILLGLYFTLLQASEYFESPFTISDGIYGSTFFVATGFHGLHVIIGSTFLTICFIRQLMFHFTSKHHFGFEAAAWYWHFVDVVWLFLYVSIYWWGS
T1 sequence (P00403 whole entry, further chain): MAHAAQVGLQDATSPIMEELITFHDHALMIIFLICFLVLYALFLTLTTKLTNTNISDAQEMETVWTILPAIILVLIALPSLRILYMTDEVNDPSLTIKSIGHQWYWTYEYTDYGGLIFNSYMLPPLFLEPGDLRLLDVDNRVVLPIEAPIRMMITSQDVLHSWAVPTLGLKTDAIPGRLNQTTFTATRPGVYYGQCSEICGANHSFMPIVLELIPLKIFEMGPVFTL
T1 sequence (P13073 23-169): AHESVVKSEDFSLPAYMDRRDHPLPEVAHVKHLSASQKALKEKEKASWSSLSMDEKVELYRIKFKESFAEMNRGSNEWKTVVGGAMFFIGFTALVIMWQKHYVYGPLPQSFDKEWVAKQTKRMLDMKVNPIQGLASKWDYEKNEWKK

[2] = molecular target: T2, cytochrome c oxidase (CcO, complex IV), purified from bovine heart; COX4-1 the most abundant COX4 isoform (Bos taurus, UniProt P00396+P00423); assay: inhibition of purified CcO activity, dose-response; format: biochemical
T2 construct: gene COX4I1; purified CcO from bovine heart (Sigma-Aldrich C5499), whole multi-subunit complex; with COX1 and the other CcO subunits

IC50 [1]: ~2 µM
IC50 [2]: 25.8 ± 3.75 µM
SMILES: CN(C)CCCN1c2ccccc2Sc2ccc(Cl)cc21 [CPZ, Chlorpromazine]
